Experiment: xn = mol fraction of the nth substance listed
Settings: 283.65 K, Vibrating tube method

C=C [ethene] + CCO
Settings | mass density [kg/m3]
Liquid mixture 1, x1 = 0.685 | 529.3
Liquid mixture 1, x1 = 0.712 | 503.5
Liquid mixture 2, x1 = 0.862 | 410
Liquid mixture 2, x1 = 0.892 | 385.6

Liquid
Settings | mass density [kg/m3]
x1 = 0.101 | 767.8
x1 = 0.178 | 741.9
x1 = 0.268 | 708.7
x1 = 0.408 | 661.3
x1 = 0.512 | 614.1
x1 = 0.614 | 564.2
x1 = 0.94 | 347.3
x1 = 0.989 | 295.1

Reference: the NIST ThermoML archive (doi:10.1021/je049796y)
